Values quoted from earlier work in patent publication US4285947A, “Aldehyde adducts of triamterene” (INTERx Research Corporation, priority 1980, dated 1981).
Converted amounts (≈) assume the structure as drawn.

What was measured:
[1] = not given; remark: listed apart in the source
[2] = following the recommended clinical dose

aqueous solubility: 45 µg/mL (≈ 178 µM)
solubility in lipid-like solvents [1]: limited solubility
plasma and urine concentration [2]: extremely low
SMILES: Nc1nc(N)c2nc(-c3ccccc3)c(N)nc2n1 [triamterene, 2,4,7-triamino-6-phenylpteridine]
